# Source: patent US20230203098A1, “HUMAN TRANSFERRIN RECEPTOR BINDING PEPTIDE” (priority 2020, published 2023)
# Read-outs that look alike come from different tables or passages of the source. Where a SMILES comes first, the peptide text is derived from it. Bridges are numbered along the chain shown (N, C = ends). [ ]: non-standard residue; d: D form. The star is where a group is joined. NH(CH2CH2O)8Me = COCCOCCOCCOCCOCCOCCOCCOCCN*; NMePhe(3-Cl) = CN[C@@H](Cc1cccc(Cl)c1)C(=O)O; NMeW = CN[C@@H](Cc1c[nH]c2ccccc12)C(=O)O; Lys(N3) = [N-]=[N+]=NCCCC[C@H](N)C(=O)O; NMeY = CN[C@@H](Cc1ccc(O)cc1)C(=O)O; NMeF = CN[C@@H](Cc1ccccc1)C(=O)O; Aad = N[C@@H](CCCC(=O)O)C(=O)O; Ahp(2) = CCCCC[C@H](N)C(=O)O; PEG4 = NCCOCCOCCOCCOCCC(=O)O; hLys = NCCCCC[C@H](N)C(=O)O; Nle = CCCC[C@H](N)C(=O)O
# Biological target: transferrin receptor (hTfR) (Homo sapiens, UniProt P02786)
# Experiment: Intermolecular interaction evaluation test between transferrin receptor (hTfR) and peptide by surface plasmon resonance (SPR)
# Type: binding
# Procedure, shortened: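 Receptor was Ni-captured and EDC/NHS-fixed on an NTA chip; running buffer HEPES pH 8.0 with NaCl, Tween 20, BSA and 1.0% DMSO.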
# [1] = surface plasmon resonance, hTfR, read-out: KD value for hTfR by SPR (class symbol)
# [2] = surface plasmon resonance, peptide vs hTfR, read-out: KD value, hTfR binding by SPR (class symbol)
# [3] = binding to hTfR by SPR, Table 2 peptides, read-out: KD value (SPR) class
# [4] = surface plasmon resonance, peptide vs hTfR, read-out: KD value for hTfR by SPR (class symbol)
# [5] = SPR, peptides, linker-added peptides and FITC conjugates, Patent ID 203-230, read-out: KD
# Chain of transferrin receptor (hTfR) (P02786 whole entry): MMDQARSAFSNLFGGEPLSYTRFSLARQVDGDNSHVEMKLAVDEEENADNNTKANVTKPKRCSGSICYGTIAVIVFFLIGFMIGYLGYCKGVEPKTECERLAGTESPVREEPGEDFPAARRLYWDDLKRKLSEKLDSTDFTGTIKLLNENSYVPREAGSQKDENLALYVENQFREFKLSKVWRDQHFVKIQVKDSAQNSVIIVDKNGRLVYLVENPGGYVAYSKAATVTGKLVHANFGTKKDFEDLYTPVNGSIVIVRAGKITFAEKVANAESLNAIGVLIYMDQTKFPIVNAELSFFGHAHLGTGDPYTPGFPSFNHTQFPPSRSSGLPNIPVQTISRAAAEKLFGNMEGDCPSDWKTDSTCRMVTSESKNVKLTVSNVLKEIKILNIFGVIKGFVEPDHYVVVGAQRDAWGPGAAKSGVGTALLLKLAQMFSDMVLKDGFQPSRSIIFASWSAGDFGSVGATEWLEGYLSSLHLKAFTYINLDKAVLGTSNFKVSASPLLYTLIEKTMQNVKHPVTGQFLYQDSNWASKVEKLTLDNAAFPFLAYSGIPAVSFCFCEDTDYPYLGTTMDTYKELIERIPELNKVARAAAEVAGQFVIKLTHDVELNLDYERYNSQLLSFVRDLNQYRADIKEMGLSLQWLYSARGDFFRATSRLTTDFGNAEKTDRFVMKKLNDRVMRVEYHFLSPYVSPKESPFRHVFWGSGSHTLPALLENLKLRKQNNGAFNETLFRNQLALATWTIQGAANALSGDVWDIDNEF
compound,measurement,setting,value
CC[C@H](C)[C@@H]1NC(=O)[C@H](Cc2ccc(OC)cc2)NC(=O)[C@H](Cc2ccc(O)cc2)NC(=O)[C@H](CC(N)=O)NC(=O)[C@H](Cc2c[nH]c3ccccc23)N(C)C(=O)[C@H](C(C)C)NC(=O)[C@H](Cc2cccc(Cl)c2)N(C)C(=O)[C@H](C(C)C)NC(=O)[C@H](C)NC(=O)CSC[C@@H](C(=O)N[C@H](CCC(=O)O)C(=O)O)NC(=O)[C@H](Cc2ccc(O)cc2)N(C)C(=O)[C@H](Cc2ccccc2)NC(=O)[C@H](CCCNC(=N)N)NC(=O)[C@H](CCCNC(=N)N)NC(=O)[C@H]([C@@H](C)CC)NC1=O [compound 387],Kd,[1],1 to 100 nM
CC[C@H](C)[C@@H]1NC(=O)[C@H](Cc2ccc(OC)cc2)NC(=O)[C@H](Cc2ccc(O)cc2)NC(=O)[C@H](CC(N)=O)NC(=O)[C@H](Cc2cn(CC(=O)O)c3ccccc23)NC(=O)[C@H](C(C)C)NC(=O)[C@H](Cc2cccc(Cl)c2)N(C)C(=O)[C@H](C(C)C)NC(=O)[C@H](C)NC(=O)CSC[C@@H](C(N)=O)NC(=O)[C@H](Cc2ccc(O)cc2)N(C)C(=O)[C@H](Cc2ccccc2)NC(=O)[C@@H](CCCNC(=N)N)NC(=O)C(C)(C)NC(=O)[C@H]([C@@H](C)CC)NC1=O [compound 303],Kd,[2],1 to 100 nM
CC[C@H](C)[C@@H]1NC(=O)[C@H](Cc2ccc(O)cc2)NC(=O)[C@H](Cc2ccc(O)cc2)NC(=O)[C@H](Cc2c[nH]cn2)NC(=O)[C@H](Cc2c[nH]c3ccccc23)NC(=O)[C@H](C(C)C)NC(=O)[C@H](Cc2ccccc2)N(C)C(=O)[C@H](C(C)C)NC(=O)[C@H](C)NC(=O)CSC[C@@H](C(N)=O)NC(=O)[C@H](Cc2ccc(O)cc2)N(C)C(=O)[C@H](Cc2ccc(O)cc2)NC(=O)[C@H](CCCNC(=N)N)NC(=O)[C@H](CCCNC(=N)N)NC(=O)[C@H]([C@@H](C)CC)NC1=O [compound 274],Kd,[3],100 to 1000 nM
CC[C@H](C)[C@@H]1NC(=O)[C@H](Cc2ccc(OC)cc2)NC(=O)[C@H](Cc2ccc(O)cc2)NC(=O)[C@H](CC(N)=O)NC(=O)[C@H](Cc2c[nH]c3ccccc23)N(C)C(=O)[C@H](C(C)C)NC(=O)[C@H](Cc2cccc(Cl)c2)N(C)C(=O)[C@H](C(C)C)NC(=O)[C@H](C)NC(=O)CSC[C@@H](C(=O)NCC(=O)NCC(=O)NCC(=O)NCC(=O)N[C@@H](CO)C(=O)N[C@@H](CO)C(=O)N[C@@H](CS)C(N)=O)NC(=O)[C@H](Cc2ccc(O)cc2)N(C)C(=O)[C@H](Cc2ccccc2)NC(=O)[C@@H](CCCNC(=N)N)NC(=O)[C@H](CCCNC(=N)N)NC(=O)[C@H](CCC(=O)O)NC1=O [compound 342],Kd,[2],1 to 100 nM
CCCCC[C@@H]1NC(=O)[C@H](CC(N)=O)NC(=O)[C@H](Cc2c[nH]c3ccccc23)NC(=O)[C@H](C(C)C)NC(=O)[C@H](Cc2ccccc2)N(C)C(=O)[C@H](C(C)C)NC(=O)[C@H](C)NC(=O)CSC[C@@H](C(=O)NCC(=O)N[C@@H](CCCCN=[N+]=[N-])C(N)=O)NC(=O)[C@H](Cc2ccc(O)cc2)N(C)C(=O)[C@H](Cc2ccc(O)cc2)NC(=O)[C@H](CCCNC(=N)N)NC(=O)[C@H](CCCNC(=N)N)NC(=O)[C@H]([C@@H](C)CC)NC(=O)[C@H]([C@@H](C)CC)NC(=O)[C@H](Cc2ccc(O)cc2)NC1=O [compound 276] ({CH2CO}-AV[NMeF]VWN[Ahp(2)]YIIRRY[NMeY]CG[Lys(N3)]-NH2; thioether N-15),Kd,[3],100 to 1000 nM
CC[C@H](C)[C@@H]1NC(=O)[C@H](Cc2ccc(OC)cc2)NC(=O)[C@H](Cc2ccc(O)cc2)NC(=O)[C@H](CC(N)=O)NC(=O)[C@H](Cc2c[nH]c3ccccc23)N(C)C(=O)[C@H](C(C)C)NC(=O)[C@H](Cc2cccc(Cl)c2)N(C)C(=O)[C@@H]2CCCC(=O)NCCCCC[C@H](NC(=O)[C@H]([C@@H](C)CC)NC1=O)C(=O)N[C@H](CCCNC(=N)N)C(=O)N[C@@H](Cc1ccccc1)C(=O)N(C)[C@@H](Cc1ccc(O)cc1)C(=O)N[C@H](C(N)=O)CSCC(=O)N[C@@H](C)C(=O)N2 [compound 418] ({CH2CO}-A[Aad][NMePhe(3-Cl)]V[NMeW]NYY(Me)II[hLys][dR]F[NMeY]C-NH2; lactam 2-11 (inferred); thioether N-15 (inferred)),Kd,[4],1 to 100 nM
CC[C@H](C)[C@@H]1NC(=O)[C@@H]2CCCCNC(=O)[C@H]3CCCN3C(=O)CC[C@H](NC(=O)[C@H](C(C)C)NC(=O)[C@H](C)NC(=O)CSC[C@@H](C(N)=O)NC(=O)[C@H](Cc3ccc(O)cc3)N(C)C(=O)[C@H](Cc3ccc(O)cc3)NC(=O)[C@H](CCCNC(=N)N)NC(=O)[C@H](CCCNC(=N)N)NC(=O)[C@H]([C@@H](C)CC)NC1=O)C(=O)N[C@@H](C(C)C)C(=O)N(C)[C@@H](Cc1c[nH]c3ccccc13)C(=O)N[C@@H](CC(N)=O)C(=O)N[C@@H](Cc1ccc(O)cc1)C(=O)N2 [compound 413] ({CH2CO}-AVEV[NMeW]NYKIIRRY[NMeY]C-NH2; linker 3-8 via dP; thioether N-15),Kd,[4],100 to 1000 nM
CC[C@H](C)[C@@H]1NC(=O)[C@H](Cc2ccc(OC)cc2)NC(=O)[C@H](Cc2ccc(O)cc2)NC(=O)[C@H](CC(N)=O)NC(=O)[C@H](Cc2c[nH]c3ccccc23)N(C)C(=O)[C@H](C(C)C)NC(=O)[C@H](Cc2cccc(Cl)c2)N(C)C(=O)[C@H](C(C)C)NC(=O)[C@H](C)NC(=O)CSC[C@@H](C(=O)NCC(=O)N[C@@H](CCCCN=[N+]=[N-])C(N)=O)NC(=O)[C@H](Cc2ccc(O)cc2)N(C)C(=O)[C@H](Cc2ccccc2)NC(=O)[C@@H](CCCNC(=N)N)NC(=O)[C@H](CCCNC(=N)N)NC(=O)[C@H]([C@@H](C)CC)NC1=O [compound 405] ({CH2CO}-AV[NMePhe(3-Cl)]V[NMeW]NYY(Me)IIR[dR]F[NMeY]CG[Lys(N3)]-NH2; thioether N-15),Kd,[1],1 to 100 nM
CCCC[C@@H]1NC(=O)[C@H]([C@@H](C)CC)NC(=O)[C@H](Cc2ccc(OC)cc2)NC(=O)[C@H](Cc2ccc(O)cc2)NC(=O)[C@H](CC(N)=O)NC(=O)[C@H](Cc2c[nH]c3ccccc23)N(C)C(=O)[C@H](C(C)C)NC(=O)[C@H](Cc2cccc(Cl)c2)N(C)C(=O)[C@H](C(C)C)NC(=O)[C@H](C)NC(=O)CSC[C@@H](C(=O)NCCOCCOCCOCCOCCC(N)=O)NC(=O)[C@H](Cc2ccc(O)cc2)N(C)C(=O)[C@H](Cc2ccccc2)NC(=O)[C@@H](CCCNC(=N)N)NC(=O)[C@H](CCCNC(=N)N)NC1=O [compound 334] ({CH2CO}-AV[NMePhe(3-Cl)]V[NMeW]NYY(Me)I[Nle]R[dR]F[NMeY]C[PEG4]-NH2; thioether N-15),Kd,[2],1 to 100 nM
CC[C@H](C)[C@@H]1NC(=O)[C@H](Cc2ccc(OC)cc2)NC(=O)[C@H](Cc2ccc(O)cc2)NC(=O)[C@H](CC(N)=O)NC(=O)[C@H](Cc2c[nH]c3ccccc23)NC(=O)[C@H](C(C)C)NC(=O)[C@H](Cc2cccc(Cl)c2)N(C)C(=O)[C@H](C(C)C)NC(=O)[C@H](C)NC(=O)CSC[C@@H](C(=O)NCCOCCOCCOCCOCCC(N)=O)NC(=O)[C@H](Cc2ccc(O)cc2)N(C)C(=O)[C@H](Cc2ccccc2)NC(=O)[C@H](CCCNC(=N)N)NC(=O)[C@H](CCCNC(=N)N)NC(=O)[C@H]([C@@H](C)CC)NC1=O [compound 502],Kd,"SPR, hTfR, class symbols A-D, read-out: KD (column without head, continuation of the table series)",< 1 nM
CC[C@H](C)[C@@H]1NC(=O)[C@H](Cc2ccc(OC)cc2)NC(=O)[C@H](Cc2ccc(O)cc2)NC(=O)[C@H](CC(N)=O)NC(=O)[C@H](Cc2c[nH]c3ccccc23)N(C)C(=O)[C@H](C(C)C)NC(=O)[C@H](Cc2cccc(Cl)c2)N(C)C(=O)[C@H](C(C)C)NC(=O)[C@H](C)N(C)C(=O)CSC[C@@H](C(N)=O)NC(=O)[C@H](Cc2ccc(O)cc2)N(C)C(=O)[C@H](Cc2ccccc2)NC(=O)[C@H](CCCNC(=N)N)NC(=O)[C@H](CCCNC(=N)N)NC(=O)[C@H]([C@@H](C)CC)NC1=O [compound 214],Kd,[5],1 to 100 nM
CC[C@H](C)[C@@H]1NC(=O)[C@H](Cc2ccc(O)cc2)NC(=O)[C@H](Cc2ccc(O)cc2)NC(=O)[C@H](CC(N)=O)NC(=O)[C@H](Cc2c[nH]c3ccccc23)NC(=O)[C@H](C(C)C)NC(=O)[C@H](Cc2ccccc2)NC(=O)[C@H](C(C)C)NC(=O)[C@H](C)NC(=O)CSC[C@@H](C(N)=O)NC(=O)[C@H](Cc2ccc(O)cc2)N(C)C(=O)[C@H](Cc2ccc(O)cc2)NC(=O)[C@H](C)NC(=O)[C@H](CCCNC(=N)N)NC(=O)[C@H]([C@@H](C)CC)NC1=O [compound 256],Kd,[3],1 to 100 nM
CC[C@H](C)[C@@H]1NC(=O)[C@H](Cc2ccc(OC)cc2)NC(=O)[C@H](Cc2ccc(O)cc2)NC(=O)[C@H](CC(N)=O)NC(=O)[C@H](Cc2c[nH]c3ccccc23)N(C)C(=O)[C@H](C(C)C)NC(=O)[C@H](Cc2cccc(Cl)c2)N(C)C(=O)[C@H](C(C)C)NC(=O)[C@H](C)N(C)C(=O)CSC[C@@H](C(N)=O)NC(=O)[C@H](Cc2ccc(O)cc2)N(C)C(=O)[C@H](Cc2ccccc2)NC(=O)[C@@H](C)NC(=O)[C@H](CCCNC(=N)N)NC(=O)[C@H]([C@@H](C)CC)NC1=O [compound 216],Kd,[5],> 1000 nM
CC[C@H](C)[C@@H]1NC(=O)[C@H](Cc2ccc(O)cc2)NC(=O)[C@H](Cc2ccc(O)cc2)NC(=O)[C@H](CC(N)=O)NC(=O)[C@H](Cc2c[nH]c3ccccc23)NC(=O)[C@H](C(C)C)NC(=O)[C@H](Cc2ccccc2)NC(=O)[C@H](C(C)C)NC(=O)[C@H](CCC(=O)O)NC(=O)CSC[C@@H](C(=O)NCCOCCOCCOCCOCCOCCOCCOCCOCCOCCOCCOCCOCCC(=O)NN)NC(=O)[C@H](Cc2ccc(O)cc2)N(C)C(=O)[C@H](Cc2ccc(O)cc2)NC(=O)[C@H](CCCNC(=N)N)NC(=O)[C@H](CCCNC(=N)N)NC(=O)[C@H]([C@@H](C)CC)NC1=O [compound 218],Kd,[5],1 to 100 nM
CC[C@H](C)[C@@H]1NC(=O)[C@H](Cc2ccc(OC)cc2)NC(=O)[C@H](Cc2ccc(O)cc2)NC(=O)[C@H](CC(N)=O)NC(=O)[C@H](Cc2c[nH]c3ccccc23)N(C)C(=O)[C@H](C(C)C)NC(=O)[C@H](Cc2cccc(Cl)c2)N(C)C(=O)[C@H](C(C)C)NC(=O)[C@H](C)NC(=O)CSC[C@@H](C(N)=O)NC(=O)[C@H](Cc2ccc(O)cc2)N(C)C(=O)[C@H](Cc2ccccc2)NC(=O)[C@@H](CCCNC(=N)N)NC(=O)[C@H](CCCNC(=N)N)NC(=O)[C@H](CCC(=O)NCCOCCOCCOCCOCCOCCOCCOCCOC)NC1=O [compound 345] ({CH2CO}-AV[NMePhe(3-Cl)]V[NMeW]NYY(Me)IE(NH(CH2CH2O)8Me)R[dR]F[NMeY]C-NH2; thioether N-15),Kd,[2],1 to 100 nM
